Measurements: patent publication US9540325B2, “N1-cyclic amine-N5-substituted phenyl biguanide derivatives, methods of preparing the same and pharmaceutical composition comprising the same” (Immunomet Therapeutics, Inc., priority 2011, dated 2017)

Assays:
AMPKα = assay: Measurement of AMPK activation effect (AMPKα Thr172 phosphorylation immunoassay) in MCF7 cells; type: cell-based, human; conditions: 24 hours; for AMPK activation effect at 10 μM (%) / AMPK activation effect at 50 μM (%): relative to untreated cells; for AMPK activation effect AC150: concentration at which AMPK activation reached 150%
How it was run: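 MCF7 cells in DMEM/10% FBS were treated 24 h with derivatives at 5, 10 and 50 μM (metformin hydrochloride control, 0.05–10 mM). AMPKα Thr172 phosphorylation was measured by immunoassay on 20 μg lysate. AC150 (concentration giving 150% activation) came from concentration–response curves, with activation also reported at fixed concentrations.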

Snail = assay: EMT inhibitory effect by inhibition of Snail expression (immunoblotting) in MCF7 cells; type: cell-based, human; conditions: MCF7, 48 hours, untreated control = 100%
Experimental: Cells undergoing EMT owing to various cytokines and growth factors can acquire motility and thus move a distance to form tumors in new tissues. Therefore, the metastasis of cancer cells can be inhibited by controlling expression of EMT-related transcription factors to hinder EMT. Based on these facts, the activities of biguanide derivatives that inhibit Snail expression, which is a transcription factor inducing EMT in the MCF7 cell line derived from human breast cancer, were measured and simple experimental methods are described, as follows.
MCF7 cells derived from human breast cancer (commercially available from Korean Cell Line Bank) were cultured in a DMEM medium supplemented with 10% (v/v) fetal bovine serum (commercially available from Gibco Life Technologies (US)), put into a 6-well plate so that the number of cultured cells could amount to approximately 5×10^5 cells per well, and then incubated in an incubator supplied with 5% CO2 (culture temperature: 37° C., pH: 7.0 to 7.4). The culture media were treated with phenformin hydrochloride and the compounds synthesized in the examples at contents of 1 μM and 10 μM, respectively, and then incubated for 48 hours. Metformin hydrochloride was used as the control, and the cells were treated with 1 mM and 10 mM metformin hydrochloride. After 48 hours, the cells were lysed in a cell lysis buffer containing 10 mM Tris HCl (pH7.4), 100 mM NaCl, 1 mM EDTA, 1 mM EGTA, 1 mM NaF, 20 mM Na4P2O7, 2 mM Na3VO4, 1% TritonX-100, 10% glycerol, 0.5% deoxycholate and 1 mM PMSF. Then, 25 μg of the cell lysate was electrophoresized in an SDS-PAGE gel, and then transferred to a […] membrane (commercially available from Amersham Life Science). The membrane reacted with rat monoclonal anti-human Snail (commercially available from Cell signaling Technology) or mouse monoclonal anti-β-actin (commercially available from Santa cruz Biotechnology), and unbound antibodies were removed. In this case, anti-β-actin was used as the antibody to ensure that the amount of proteins loaded into the SDS-PAGE gel is identical. The membrane was reacted again with a secondary antibody, anti-rat IgG (commercially available from Cell signaling Technology) or anti-mouse IgG (commercially available from Santa Cruz Biotechnology). Finally, the antibody bound to the membrane was detected using an ECL Plus system (commercially available from Amersham Life Science). Also, the expression level of Snail with respect to β-actin was analyzed using a Scion image analysis program. Here, when it was assumed that the expression level of the untreated control was 100%, the expression level of the Snail by treatment with the compounds synthesized in the examples was indicated as a percentage (%).

HCT116 cells = assay: Measurement of effect of inhibiting cancer cell proliferation (MTT); type: cell-based, human; conditions: for inhibition at 100 µM: HCT-116, 100 μM, read-out: Cell Growth Inhibition (%) at 100 μM
How it was run: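 HCT116 cells (~5,000/well, DMEM with 10% FBS) treated 48 h with compound at 0.39–100 μM, metformin hydrochloride control at 0.1–25 mM. Viability by MTT (3 h, formazan in DMSO, A560) relative to untreated wells; GIC50 from the viability curve, also viability at 100 μM.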

SMILES	melting point [°C]	AMPK activation effect at 10 μM (%) (AMPKα)	AMPK activation effect at 50 μM (%) (AMPKα)	AMPK activation effect AC150 (AMPKα) [µM]	Snail Expression Rate (%) (Snail; 1 μM)	Snail Expression Rate (%) (Snail; 10 μM)	inhibition at 100 µM (HCT116 cells; Homo sapiens, 48 hours) [%]	GI50 (HCT116 cells; Homo sapiens, HCT-116, 48 h) [µM]	GI50 (HCT116 cells; 48 hours, hydrochloride) [µM]
Cl.N=C(NC(=N)N1CCCCC1)Nc1cccc(Cl)c1 [Example 20, N1-piperidine-N5-(3-chloro)phenyl biguanide hydrochloride]	172 to 174	236	558	3.2	57.6	8.7	97.5	48.2	–
Cl.N=C(NC(=N)N1CCCCCC1)Nc1cccc(Cl)c1 [Example 21, N1-azepane-N5-(3-chloro)phenyl biguanide hydrochloride]	213 to 215	211	653	4.8	83.5	29.8	97	41.5	–
Cl.N=C(NC(=N)N1CCCC1)Nc1ccc(C(F)(F)F)cc1 [Example 26, N1-pyrrolidine-N5-(4-trifluoromethyl)phenyl biguanide hydrochloride]	283 to 284	255	642	3.1	57.2	14.6	97.6	–	22.7
Cl.N=C(NC(=N)N1CCCCC1)Nc1ccc(C(F)(F)F)cc1 [Example 27, N1-piperidine-N5-(4-trifluoromethyl)phenyl biguanide hydrochloride]	273 to 274	455	–	2.4	52.7	13.2	97.7	6.7	–
